Test results from paper PMC10353390, “Biological and Structural Analyses of New Potent Allosteric Inhibitors of HIV-1 Integrase” (Antimicrobial Agents and Chemotherapy, 2023).
Read-outs that look alike come from different tables or passages of the source.

Columns and labels:
[1] = molecular target: T1, HIV-1 IN (Human immunodeficiency virus type 1 group M subtype B, UniProt P12497); assay: HTRF IN multimerization assay; type: biochemical; conditions: mean ± SD
T1 construct: made in house
Description: A key property of INLAIs is the ability to promote HIV-1 IN homo-multimerization ([39][–][42]). […] The maximal signal (plateau) in our IN aggregation assay corresponds to the highest HTRF signal increase under saturating INLAI concentration, relative to baseline level. Thus, MUT916, MUT884, MUT871, and MUT872 increased HIV-1 IN aggregation 3.7 to 4.4-fold, while BDM-2, BI-224436, and S-I-82 did so 5 to 6-fold (Table 1).

[2] = test system: HXB2 HIV-1 strain; assay: Multiple-round infection assay in MT4 cells, HXB2; type: cell-based; conditions: Human immunodeficiency virus 1, HXB2; multiple-round infection, MT4 cells; mean ± SD, n > 5; read-out: EC50 HXB2
Method in brief: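 MT4 cells at 10^6/mL were infected with HIV-1 at MOI 0.001 for 2 h in the presence of compound dilutions. Cell viability, measured by CellTiter-Glo luminescence, served as the read-out of protection in this multiple-round infection.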

[3] = test system: NL4-3 HIV-1 strain; assay: Multiple-round infection assay in MT4 cells, NL4-3; type: cell-based; conditions: MT4 cells
[4] = Cytotoxicity assay in MT4 cells; type: cell-based; conditions: human, MT4 cells (proliferating human T-cell line), CellTiter-Glo
Description: Growth inhibition was monitored in a proliferating human T-cell line (MT4) with different concentrations of compounds, using the CellTiter-Glo luminescent reagent (Promega), as previously described ([12]).

[5] = test system: lab-adapted and clinical HIV-1 isolates; assay: Infection assays in primary T CD4+ lymphocytes; type: cell-based; conditions: Human immunodeficiency virus 1, Lymphocyte
[6] = test system: VSV-G-pseudotyped NL4-3Δenv-luc; assay: microbe, parasite or virus in culture; type: cell-based, HIV-1
[7] = test system: recombinant NL4-3 viruses with polymorphisms at IN positions 124 and 125; assay: Multiple-round infection of MT4 cells with recombinant NL4-3 viruses polymorphic at IN positions 124 and 125; type: cell-based, HIV-1
Description: Located on the HIV-1 IN CCD dimerization interface, the principal INLAI binding pocket overlaps with a hot spot of amino acid sequence polymorphism involving IN residues 124 and 125 ([16]). To test if the new INLAIs maintained antiviral activity against major polymorphisms, we introduced all major combinations of residues found in circulating HIV-1 strains at positions 124 and 125 into NL4-3 HIV-1 molecular clone. In total, we evaluated 15 such combinations that collectively covered 98% of all HIV-1 clade polymorphisms involving these positions ([48]). To gauge effects on the antiviral activity, we calculated the EC50 fold change (FC) relative to wild type NL4-3 HIV-1 strain that features Thr124 and Thr125 (TT; specific polymorphisms are referred to by a single letter amino acid code).
(§1) MT4 cells growing exponentially at the density of 10^6/mL were infected with HIV-1 strain NL4-3 at a multiplicity of infection (MOI) of 0.001 for 2 h in the presence of different concentrations of compounds, and the CellTiter-Glo luminescent reagent (Promega) was used to quantify cell viability as described previously ([12]).

[8] = test system: primary HIV-1 isolates with polymorphisms at IN positions 124 and 125; assay: Multiple-round infection of MT4 cells with primary HIV-1 isolates polymorphic at IN positions 124 and 125; type: cell-based; conditions: primary isolate
Method: Next, we evaluated the potency of the BDM-2 series of INLAIs against several primary HIV-1 isolates with polymorphisms at IN positions 124 and 125.
as §1

[9] = test system: HIV-1 strains resistant to INSTIs, NRTIs, NNRTIs or PIs; type: cell-based
Method in brief: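 NL4-3-based recombinant mutants and drug-resistant clinical isolates; exponentially growing MT4 cells (10^6/mL) infected at MOI 0.001 for 2 h with compound at varying concentrations. Protection quantified as cell viability by CellTiter-Glo luminescence.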

[10] = test system: NL4-3 HIV-1 with INLAI-selected IN single point mutations; type: cell-based
[11] = molecular target: HIV-1 IN-LEDGF/p75 interaction (Human immunodeficiency virus type 1 group M subtype B, UniProt P12497); assay: biochemical
[12] = molecular target: CCD of HIV-1 IN and IBD of LEDGF/p75 (Human immunodeficiency virus type 1 group M subtype B, UniProt P12497); assay: biochemical
[13] = INSTI-resistant, NL4-3 background

Cc1ccc(C2CC2)c(-c2ccc3c(c2C)CCCO3)c1[C@H](OC(C)(C)C)C(=O)O [MUT871]
AC50 ([1]; concentration for 50% maximum activation of multimerization): 31 ± 20 nM
IN multimerization Plateau ([1]; maximum multimerization reached versus baseline): 440 ± 53%
EC50 [2]: 1.4 ± 0.3 nM
EC90 ([3]; Human immunodeficiency virus 1, NL43, multiple-round infection, from dose response curves, read-out: EC90 NL4-3): 4.6 ± 1.6 nM
EC50 ([3]; Human immunodeficiency virus 1, NL43, multiple-round infection, mean ± SD, n > 5, read-out: EC50 NL4-3): 3.1 ± 1 nM
Selectivity index CC50/EC50 NL4-3 [3]: 14,838
CC50 [4]: 46000 ± 11000 nM
EC50 ([5]; read-out: EC50 33913N (B)): 1.5 ± 0.6 nM
EC50 ([5]; read-out: EC50 HXB2 (B)): 1.8 ± 0.3 nM
EC50 ([5]; read-out: EC50 KER2008 (A)): 6.4 ± 1.3 nM
EC50 ([5]; read-out: EC50 NL4-3 (B)): 2.8 ± 0.5 nM
EC50 ([5]; read-out: EC50 NP1525 (CRF01_AE)): 3.5 ± 0.6 nM
EC50 ([5]; read-out: EC50 NP1538 (B)): 4 ± 2.3 nM
EC50 ratio (single/multiple-round infection) [6]: 203
EC50 ([6]; Human immunodeficiency virus 1, NL43, MT4, read-out: EC50 in single-round infection): 630 ± 10 nM
Fold change in EC50 relative to parental NL4-3, AA ([7]; recombinant NL4-3, IN 124/125 AA): 1
Fold change in EC50 relative to parental NL4-3, AM ([7]; recombinant NL4-3, IN 124/125 AM): 0.4
Fold change in EC50 relative to parental NL4-3, AT ([7]; recombinant NL4-3, IN 124/125 AT): 1
Fold change in EC50 relative to parental NL4-3, AV ([7]; recombinant NL4-3, IN 124/125 AV): 1
Fold change in EC50 relative to parental NL4-3, GA ([7]; recombinant NL4-3, IN 124/125 GA): 3
Fold change in EC50 relative to parental NL4-3, GT ([7]; recombinant NL4-3, IN 124/125 GT): 2
Fold change in EC50 relative to parental NL4-3, NA ([7]; recombinant NL4-3, IN 124/125 NA): 2
Fold change in EC50 relative to parental NL4-3, NT ([7]; recombinant NL4-3, IN 124/125 NT): 1
Fold change in EC50 relative to parental NL4-3, NV ([7]; recombinant NL4-3, IN 124/125 NV): 1
Fold change in EC50 relative to parental NL4-3, SA ([7]; recombinant NL4-3, IN 124/125 SA): 1
Fold change in EC50 relative to parental NL4-3, ST ([7]; recombinant NL4-3, IN 124/125 ST): 1
Fold change in EC50 relative to parental NL4-3, TA ([7]; recombinant NL4-3, IN 124/125 TA): 1
Fold change in EC50 relative to parental NL4-3, TM ([7]; recombinant NL4-3, IN 124/125 TM): 0.3
Fold change in EC50 relative to parental NL4-3, TV ([7]; recombinant NL4-3, IN 124/125 TV): 1
Fold change in EC50 relative to parental NL4-3, CAM2BBY (CRF02) ([8]; IN 124/125 AA): 2
Fold change in EC50 relative to parental NL4-3, E0836M4 (D) ([8]; IN 124/125 AA): 2
Fold change in EC50 relative to parental NL4-3, KER2008 (A) ([8]; IN 124/125 AA): 1
Fold change in EC50 relative to parental NL4-3, NP1525 (CRF01) ([8]; IN 124/125 AA): 1
Fold change in EC50 relative to parental NL4-3, NP1695 (CRF02) ([8]; IN 124/125 AA): 3
Fold change in EC50 relative to parental NL4-3, TZA125 (C) ([8]; IN 124/125 AA): 1
Fold change in EC50 relative to parental NL4-3, KSM4030 (A) ([8]; IN 124/125 GA): 2
Fold change in EC50 relative to parental NL4-3, vGA (C) ([8]; IN 124/125 GA): 5
Fold change in EC50 relative to parental NL4-3, 99ET14 (C) ([8]; IN 124/125 NA): 2
Fold change in EC50 relative to parental NL4-3, NP1538 (B) ([8]; IN 124/125 NA): 2
Fold change in EC50 relative to parental NL4-3, vNA_1 (B) ([8]; IN 124/125 NA): 3
Fold change in EC50 relative to parental NL4-3, vNA_2 (CRF02) ([8]; IN 124/125 NA): 3
Fold change in EC50 relative to parental NL4-3, vNV (B) ([8]; IN 124/125 NV): 3
Fold change in EC50 relative to parental NL4-3, vSA_1 (B) ([8]; IN 124/125 SA): 4
Fold change in EC50 relative to parental NL4-3, vSA_2 (CRF02) ([8]; IN 124/125 SA): 3
Fold change in EC50 relative to parental NL4-3, vTA_1 (B) ([8]; IN 124/125 TA): 2
Fold change in EC50 relative to parental NL4-3, vTA_2 (CRF02) ([8]; IN 124/125 TA): 2
Fold change in EC50 relative to NL4-3, E92Q [9, 13]: 1
Fold change in EC50 relative to NL4-3, G140S [9, 13]: 1
Fold change in EC50 relative to NL4-3, G140S/Q148H [9, 13]: 1
Fold change in EC50 relative to NL4-3, N155H [9, 13]: 1
Fold change in EC50 relative to NL4-3, Q148H [9, 13]: 1
Fold change in EC50 relative to NL4-3, Y143R [9, 13]: 1
Fold change in EC50 relative to NL4-3, NLAY351717 ([9]; NRTI-resistant clone): 1
Fold change in EC50 relative to NL4-3, NLAY351753 ([9]; NRTI/NNRTI-resistant clone): 1
Fold change in EC50 relative to NL4-3, K103N/Y181C ([9]; NRTI/NNRTIs group, NL4-3 background): 1
Fold change in EC50 relative to NL4-3, ARP-4595 ([9]; PI-resistant virus): 1
Fold change in EC50 relative to NL4-3, ARP-4596 ([9]; PI-resistant virus): 1
Fold change in EC50 relative to NL4-3, ARP-11801 ([9]; PI-resistant virus): 1
Fold change in EC50 relative to NL4-3, ARP-11803 ([9]; PI-resistant virus): 1
Fold change in EC50 relative to NL4-3, ARP-11807 ([9]; PI-resistant virus): 1
Fold change in EC50 relative to NL4-3, ARP-11808 ([9]; PI-resistant virus): 1
EC50 fold change compared to wild type NL4-3, A128T [10]: 2
EC50 fold change compared to wild type NL4-3, H171Q [10]: 6
EC50 fold change compared to wild type NL4-3, N222K [10]: 3
EC50 fold change compared to wild type NL4-3, T174I [10]: 323
EC50 fold change compared to wild type NL4-3, Y99H [10]: 4
IC50 [11]: 14 ± 5 nM
IC50 [12]: 32 ± 14 nM
